Experiment [1] relates to L. monocytogenes biofilms. As to the kind of experiment: Antibiofilm activity assay with SEM on steel discs. In kind it is cell-based, Listeria monocytogenes. As for the experimental part:
The activity of the Bac-amp1 and IDR-1018 peptides on L. monocytogenes biofilms was further investigated by scanning electron microscopy (SEM).
Specifically, in this example the three-dimensional biofilm architecture, developed on stainless steel materials, was studied.
The Aisi 304 stainless steel discs with a diameter of 14.5 mm (SS) were treated with 600 μl of standardized inoculum in the presence or absence of each of the peptides at the concentration of 25 μM or 50 μM, or with control medium, according to the same method of Example 4a and repeatedly washed in sterile PBS to remove planktonic cells and fixated on a new plate with 1 ml of Karnovsky fixative containing 5% glutaraldehyde, 4% paraformaldehyde in buffer 0.064 M (Electronic Microscopy Science, Hatfield, Pa., USA) for 1 hour at 4° C. Thereafter, the samples were washed in 0.1 M cacodylate sodium buffer at pH 7.4 (Electronic Microscopy Science, Hatfield, Pa., USA) and the fixated cells were dehydrated in a series of aqueous acetone solutions at different concentrations, in particular 25%, 50%, 75% and 100%. The samples were glued onto polished aluminium sample holders (Electronic Microscopy Science, Hatfield, Pa., USA) and uniformly vacuum coated with a 20-nm thick gold layer with the K950 high-vacuum Turbo Evaporator and a K 350 coupling (Emitech Ltd, Ashford, UK). The coated samples were examined at the JEOL 6700 FEG Field Emission Electron Microscope (SEM Jeol, City and State) with magnification from 1000× to 5000×. For each sample, a number of images (5-10), acquired as electronic images were randomly analyzed.

Experiment [2] relates to Listeria monocytogenes (ATCC strain and field strains SS1-SS5). As for the experimental part:
The bactericidal activity of the Bac-amp1 and IDR-1018 peptides was evaluated against both Gram+ (Listeria monocytogenes and Staphylococcus aureus) and Gram− (Salmonella typhimurium) pathogenic bacteria.
Standard deviations for triple incubations of each plate and EC50 evaluation were determined using GraphPad Prism version 6.00 (Graph-Pad Software, La Jolla Calif. USA)
As regards Listeria monocytogenes, five field strains were added to the trial (wild strains) SS1 (serotype 4b), SS2 (serotype 4b), SS3 (serotype 4b), SS4 (serotype 4b), SS5 (serotype ½c) shown in Table 2. These strains were isolated from 200 samples of food waste, in particular fish products and milk derivatives, obtained from workbenches of food companies. All samples were collected in a context of official controls. Isolation of Listeria monocytogenes strains was performed according to the ISO-11290-1 standard. […]
In all the investigated experimental conditions, the plate counting method was used to estimate the bactericidal activity of the peptides. Specifically, the number of colonies grown on plates with agar seeded with bacterial suspensions in the absence or in the presence of individual dilutions of peptides was counted and compared. The standard deviations of the triple incubations of each plate were determined using statistical software. […]

The record followed here is patent US11478528B2, “Antimicrobial peptides against Listeria monocytogenes” (MATERIAS S.r.l., priority 2017, dated 2022).

Ends that are not written are not given here.

As to “VRLIVKVRIWRR-NH2 [Bac-amp1, VRLIVKVRIWRR-NH2]”, in experiment [1] (25 μM), the “biofilm formation by SEM” value was “significantly reduces the formation of biofilm”. Moreover, the “cells on steel discs by SEM, 5000× image” value in experiment [1] (50 μM) is “near absence of cells”. In experiment [2] (ATCC strain and field strains SS1-SS5), the “MIC, bactericidal activity against Listeria monocytogenes” value is reported as “below 10 μM”. In experiment [2] (ATCC strain and field strains SS1-SS5, 6 h), this substance gave an EC50 of 550 nM.

The EC50 is the midpoint of the concentration-response curve.
